pIC50: −log10 of the molar value. “And” between values parts separate entries of the source, which are not always exact repeats. Identical values can stand only once.
Tested on: NCI-H1876 complex spheroid growth, % test/control
Experiment: Anticancer human tumor NCI-H1876 cell line growth inhibition [Asc];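 also: compound exposure lasted 7 days starting three days after seeding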;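 as to viability, T/C: 100% = DMSO vehicle control wells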
Conditions: for viability, T/C: stronger effect = lower value
In short: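 Complex spheroids combining tumor cells with HUVEC endothelial cells and human MSCs, at 37 degrees C, 5% CO2; agents tested alone or combined, half-log dilutions from at or near clinical Cmax, or 10 microM if Cmax unknown.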

[1] = curve of first compound, second compound 0.0316 µM
[2] = curve of first compound, second compound 0.1 µM
[3] = curve of first compound, second compound 0.316 µM
[4] = curve of first compound, second compound 1 µM
[5] = second compound 0.0316 µM, first compound 0.0316 µM
[6] = second compound 0.0316 µM, first compound 0.1 µM
[7] = second compound 0.0316 µM, first compound 0.316 µM
[8] = second compound 0.0316 µM, first compound 1 µM
[9] = second compound 0.1 µM, first compound 0.0316 µM
[10] = second compound 0.1 µM, first compound 0.1 µM
[11] = second compound 0.1 µM, first compound 0.316 µM
[12] = second compound 0.1 µM, first compound 1 µM
[13] = second compound 0.316 µM, first compound 0.0316 µM
[14] = second compound 0.316 µM, first compound 0.1 µM
[15] = second compound 0.316 µM, first compound 0.316 µM
[16] = second compound 0.316 µM, first compound 1 µM
[17] = second compound 1 µM, first compound 0.0316 µM
[18] = second compound 1 µM, first compound 0.1 µM
[19] = second compound 1 µM, first compound 0.316 µM
[20] = second compound 1 µM, first compound 1 µM

C=C(F)C(=O)N1CCN(c2nc(OCC3CCCN3C)nc3c2CCN(c2cccc4cccc(Cl)c24)C3)CC1CC#N (stereo unspecified) + CNC(C)C(=O)NC1CN(S(=O)(=O)c2cccc(S(=O)(=O)N3CCC4CCC(C(=O)NC(c5ccccc5)c5ccccc5)N4C(=O)C(NC(=O)C(C)NC)C3)c2)CCC2CCC(C(=O)NC(c3ccccc3)c3ccccc3)N2C1=O
pIC50 (curve of first compound, second compound 0.00316 µM): 5.25
pIC50 (curve of first compound, second compound 0.01 µM): 5.25
pIC50 [1]: 5.25
pIC50 [2]: 5.25
pIC50 [3]: 5.24
pIC50 [4]: 5.26
viability, T/C (second compound 0.00316 µM, first compound 0.0316 µM): 96.9%
viability, T/C (second compound 0.00316 µM, first compound 0.1 µM): 97.3%
viability, T/C (second compound 0.00316 µM, first compound 0.316 µM): 110%
viability, T/C (second compound 0.00316 µM, first compound 1 µM): 89.3%
viability, T/C (second compound 0.00316 µM, first compound 3.16 µM): 99%
viability, T/C (second compound 0.00316 µM, first compound 10 µM): 0.33%
viability, T/C (second compound 0.01 µM, first compound 0.0316 µM): 104%
viability, T/C (second compound 0.01 µM, first compound 0.1 µM): 96.2%
viability, T/C (second compound 0.01 µM, first compound 0.316 µM): 103%
viability, T/C (second compound 0.01 µM, first compound 1 µM): 103%
viability, T/C (second compound 0.01 µM, first compound 3.16 µM): 98.4%
viability, T/C (second compound 0.01 µM, first compound 10 µM): 1.04%
viability, T/C [5]: 106%
viability, T/C [6]: 91.5%
viability, T/C [7]: 98.2%
viability, T/C [8]: 95.2%
viability, T/C (second compound 0.0316 µM, first compound 3.16 µM): 103%
viability, T/C (second compound 0.0316 µM, first compound 10 µM): 0.33%
viability, T/C [9]: 98.2%
viability, T/C [10]: 95.4%
viability, T/C [11]: 102%
viability, T/C [12]: 115%
viability, T/C (second compound 0.1 µM, first compound 3.16 µM): 100%
viability, T/C (second compound 0.1 µM, first compound 10 µM): 0.52%
viability, T/C [13]: 106%
viability, T/C [14]: 98.7%
viability, T/C [15]: 107%
viability, T/C [16]: 96.3%
viability, T/C (second compound 0.316 µM, first compound 3.16 µM): 108%
viability, T/C (second compound 0.316 µM, first compound 10 µM): 0.32%
viability, T/C [17]: 96.2%
viability, T/C [18]: 85.5%
viability, T/C [19]: 92.1%
viability, T/C [20]: 102%
viability, T/C (second compound 1 µM, first compound 3.16 µM): 97.2%
viability, T/C (second compound 1 µM, first compound 10 µM): 0.37%

O=C(c1ccc(F)c(F)c1Nc1ccc(I)cc1F)N1CC(O)([C@@H]2CCCCN2)C1 + Cc1c(S(C)(=O)=O)c(-c2cc(F)cc(N3CCN(c4ccc(NS(=O)(=O)c5ccc(NC(CCN6CCC(C(=O)OCCCP(=O)(O)O)CC6)CSc6ccccc6)c(S(=O)(=O)C(F)(F)F)c5)cc4)CC3)c2)c(-c2ccc(Cl)cc2)n1C(C)C
pIC50 [1]: < 6.00
pIC50 [2]: < 6.00
pIC50 [3]: < 6.00
pIC50 [4]: < 6.00
pIC50 (curve of first compound, second compound 3.16 µM): < 6.00
pIC50 (curve of first compound, second compound 10 µM): < 6.00
viability, T/C (second compound 0.0316 µM, first compound 0.00316 µM): 102%
viability, T/C (second compound 0.0316 µM, first compound 0.01 µM): 98.9%
viability, T/C [5]: 108%
viability, T/C [6]: 92.3%
viability, T/C [7]: 85.3%
viability, T/C [8]: 71.7%
viability, T/C (second compound 0.1 µM, first compound 0.00316 µM): 95.4%
viability, T/C (second compound 0.1 µM, first compound 0.01 µM): 97.5%
viability, T/C [9]: 94.6%
viability, T/C [10]: 97.6%
viability, T/C [11]: 86.9%
viability, T/C [12]: 81%
viability, T/C (second compound 0.316 µM, first compound 0.00316 µM): 96.5%
viability, T/C (second compound 0.316 µM, first compound 0.01 µM): 102%
viability, T/C [13]: 89.5%
viability, T/C [14]: 102%
viability, T/C [15]: 84.2%
viability, T/C [16]: 78.4%
viability, T/C (second compound 1 µM, first compound 0.00316 µM): 101%
viability, T/C (second compound 1 µM, first compound 0.01 µM): 102%
viability, T/C [17]: 93.9%
viability, T/C [18]: 92.1%
viability, T/C [19]: 92%
viability, T/C [20]: 77.1%
viability, T/C (second compound 3.16 µM, first compound 0.00316 µM): 109%
viability, T/C (second compound 3.16 µM, first compound 0.01 µM): 98.6%
viability, T/C (second compound 3.16 µM, first compound 0.0316 µM): 91%
viability, T/C (second compound 3.16 µM, first compound 0.1 µM): 85.8%
viability, T/C (second compound 3.16 µM, first compound 0.316 µM): 94.2%
viability, T/C (second compound 3.16 µM, first compound 1 µM): 74.9%
viability, T/C (second compound 10 µM, first compound 0.00316 µM): 103%
viability, T/C (second compound 10 µM, first compound 0.01 µM): 92.2%
viability, T/C (second compound 10 µM, first compound 0.0316 µM): 92.5%
viability, T/C (second compound 10 µM, first compound 0.1 µM): 102%
viability, T/C (second compound 10 µM, first compound 0.316 µM): 93.5%
viability, T/C (second compound 10 µM, first compound 1 µM): 79.5%

O=C(c1cc(Cc2n[nH]c(=O)c3ccccc23)ccc1F)N1CCN(C(=O)C2CC2)CC1
viability, T/C (compound 0.0316 µM): 94.3% and 103% and 108%
viability, T/C (compound 0.1 µM): 84.8% and 92.7% and 94%
viability, T/C (compound 0.316 µM): 105% and 102% (2×)
viability, T/C (compound 1 µM): 115% and 118% and 99.5%
viability, T/C (compound 3.16 µM): 96.9% and 121% and 98.1%
viability, T/C (compound 10 µM): 75.5% and 85.2% and 68.7%
pIC50 (curve of compound): < 5.00
